Test results as given in ChEMBL document CHEMBL5390296, “N-Biphenyl Pyrrolinones and Dibenzofurans as RNA-Binding Protein LIN28 Inhibitors Disrupting the LIN28-Let-7 Interaction” (ACS Med Chem Lett, 2023).
Calls of active or inactive are those of the source. No cut-off for these calls is given here.

Experiments:
[1] = Inhibition of LIN28A (16 to 187 residues) (unknown origin) expressed in Escherichia coli BL21(DE3)/mouse let-7 interaction at 75 uM incubated for 15 mins in presence of Cy-3-fluorophore labeled RNA by electrophoretic mobility shift assay relative to control
[2] = target: T1, Protein lin-28 homolog A (Homo sapiens) (UniProt Q9H9Z2); test: Binding affinity to recombinant LIN28A CSD (16 to 126 residues) (unknown origin) by biolayer interferometry analysis; details: dose 1.56-100 µM
T1 sequence (whole entry): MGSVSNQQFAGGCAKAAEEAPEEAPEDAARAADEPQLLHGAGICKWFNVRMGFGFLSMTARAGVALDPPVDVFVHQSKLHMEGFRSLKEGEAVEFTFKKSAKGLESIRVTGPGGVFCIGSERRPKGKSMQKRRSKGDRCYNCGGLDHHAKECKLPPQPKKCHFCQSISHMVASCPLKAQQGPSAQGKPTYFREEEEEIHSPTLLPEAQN

[3] = test system: JAR; test: Inhibition of let-7d miRNA biogenesis in human JAR cells incubated for 24 hrs by qPCR analysis; assay type: functional, cell-based; details: dose 5-20 µM
[4] = test system: let-7i miRNA; test: Inhibition of let-7i miRNA biogenesis in human JAR cells incubated for 24 hrs by qPCR analysis; assay type: functional, cell-based; details: dose 5-20 µM
[5] = species on record: Homo sapiens; test: Inhibition of LIN28B (24 to 111 residues) (unknown origin) expressed in Escherichia coli BL21(DE3)/mouse let-7 interaction incubated for 15 mins in presence of Cy-3-fluorophore labeled RNA by electrophoretic mobility shift assay; details: dose 2.3-150 µM
[6] = Inhibition of let-7d miRNA biogenesis in human JAR cells assessed as fold increase in mature […] at 5 to 20 uM incubated for 24 hrs by qPCR analysis; assay type: functional; details: dose 5-20 µM
[7] = test system: let-7i miRNA; test: Inhibition of let-7i miRNA biogenesis in human JAR cells assessed as fold increase in mature […] at 5 to 20 uM incubated for 24 hrs by qPCR analysis; assay type: functional, cell-based; details: dose 5-20 µM
[8] = target: T1, Protein lin-28 homolog A (Homo sapiens); test: Inhibition of recombinant LIN28A CSD (16 to 126 residues) (unknown origin) assessed as increase in thermal stability at 75 uM incubated for 45 mins by nano differential scanning fluorimetry analysis
[9] = Inhibition of LIN28A (16 to 187 residues) (unknown origin) expressed in Escherichia coli BL21(DE3)/mouse let-7 interaction incubated for 15 mins in presence of Cy-3-fluorophore labeled RNA by electrophoretic mobility shift assay

Compound	inhibition [1]	other results
O=C1C(=O)C2(CCCC2=O)C(c2ccc([N+](=O)[O-])cc2)N1c1ccc2c(c1)oc1ccccc12 (centres undefined)	inactive	
O=C(O)c1cc(N2C(=O)C(O)=C(c3nccs3)C2c2ccc([N+](=O)[O-])cc2)ccc1O (centres undefined)	64.8%	
O=C(O)c1cc(N2C(=O)C(O)=C(Cc3ccccc3)[C@@H]2c2ccc([N+](=O)[O-])cc2)ccc1O	inactive	
O=C1C(=O)C2(CCCCC2=O)C(c2ccccc2)N1c1ccccc1 (centres undefined)	inactive	
O=C1C(=O)C2(CCCC2=O)C(c2ccccc2)N1c1ccccc1 (centres undefined)	inactive	
N=C1CC=CC=C1C1=C(N)C(=O)N(c2ccc(O)c(C(=O)O)c2)[C@@H]1c1ccc([N+](=O)[O-])cc1	inactive	
O=C(O)c1cc(N2C(=O)C(O)=C(Cc3ccccc3)[C@H]2c2ccc([N+](=O)[O-])cc2)ccc1O	inactive	
O=C1C(=O)C2(CCCCC2=O)C(c2ccc([N+](=O)[O-])cc2)N1c1cccc(-c2ccccc2)c1 (centres undefined)	inactive	
Cn1nnc2cc(C3C(C(=O)c4ccccc4)=C(O)C(=O)N3c3ccc(O)c(C(=O)O)c3)ccc21 (centres undefined)		ΔTm [8]: < 0.5 °C
O=C(C1=C(O)C(=O)N(c2cccc(-c3ccccc3)c2)[C@@H]1c1ccc([N+](=O)[O-])cc1)c1ccccc1		IC50 [9]: 37 µM
O=C(C1=C(O)C(=O)N(CCCc2ccccc2)C1c1ccc([N+](=O)[O-])cc1)c1ccccc1 (centres undefined)		IC50 [9]: 5 µM
O=C1C(=O)C2(CCCC2=O)C(c2ccc([N+](=O)[O-])cc2)N1c1ccc2oc3ccccc3c2c1 (centres undefined)	inactive	
Nc1ccc(C2C(C(=O)c3ccccc3)=C(O)C(=O)N2c2ccc(O)c(C(=O)O)c2)cc1 (centres undefined)		IC50 [9]: 5 µM
O=C(C1=C(O)C(=O)N(c2ccc(O)c(C(=O)O)c2)C1c1ccc([N+](=O)[O-])cc1)c1ccccn1 (centres undefined)	106%	
O=C1C(=O)C2(CCCC2=O)C(c2ccc([N+](=O)[O-])cc2)N1c1cccc(-c2ccccc2)c1 (centres undefined)	inactive	

The next lines start with results.

inhibition [1]	Compound	other results
inactive	COc1ccc(C(=O)C2=C(O)C(=O)N(c3cccc(-c4ccccc4)c3)C2c2ccc([N+](=O)[O-])cc2)cc1OC (centres undefined)	
inactive	NC1=C(C(=O)c2ccccc2)[C@@H](c2ccc([N+](=O)[O-])cc2)N(c2ccc(O)c(C(=O)O)c2)C1=O	
inactive	O=C(C1=C(O)C(=O)N(c2cccc([N+](=O)[O-])c2)[C@H]1c1ccc([N+](=O)[O-])cc1)c1ccccc1	
inactive	O=C(C1=C(O)C(=O)N(c2ccc(O)c(C(=O)O)c2)[C@@H]1c1ccc([N+](=O)[O-])cc1)c1ccc(Cl)cc1	
inactive	CS(=O)(=O)c1ccc(C(=O)C2=C(O)C(=O)N(c3cccc(-c4ccccc4)c3)C2c2ccc([N+](=O)[O-])cc2)cc1 (centres undefined)	
84%	O=C(C1=C(O)C(=O)N(c2cccc(-c3ccccc3)c2)C1c1ccc([N+](=O)[O-])cc1)c1ccccc1 (racemic)	Activity [2]: Dose-Dependent Effect; Activity [3]: Dose-Dependent Effect; Activity [4]: Dose-Dependent Effect; inhibition [5]: Dose-Dependent Effect; fold change (FC) [6]: 2; fold change (FC) [7]: 2
65.6%	Cc1ccc(C(=O)C2=C(O)C(=O)N(c3ccc(O)c(C(=O)O)c3)C2c2ccc([N+](=O)[O-])cc2)cc1 (centres undefined)	
inactive	O=C(C1=C(O)C(=O)N(c2cccc([N+](=O)[O-])c2)[C@@H]1c1ccc([N+](=O)[O-])cc1)c1ccccc1	
inactive	O=C(O)c1cc(N2C(=O)c3c(c(-c4ccccc4)nn3Cc3ccccc3)C2c2ccc([N+](=O)[O-])cc2)ccc1O (centres undefined)	
inactive	O=C(C1=C(O)C(=O)N(c2ccc(O)c(C(=O)O)c2)[C@H]1c1ccc([N+](=O)[O-])cc1)c1ccc(Cl)cc1	
inactive	O=C(O)c1cc(N2C(=O)c3nn(Cc4ccccc4)c(-c4ccccc4)c3C2c2ccc([N+](=O)[O-])cc2)ccc1O (centres undefined)	
inactive	O=C(C1=C(O)C(=O)N(c2cccc(-c3ccccc3)c2)C1c1ccc([N+](=O)[O-])cc1)c1ccc(F)cc1O (centres undefined)	
inactive	O=C(C1=C(O)C(=O)N(c2cccc(-c3ccccc3)c2)C1c1ccc([N+](=O)[O-])cc1)C1CC1 (centres undefined)	
